Measured values from US5543521A, “Compounds that modulate endothelin activity” (Immunopharmaceutics, Inc., priority 1994, dated 1996).
Square brackets hold non-standard residues; d marks the D form. Ends that are not written are not given here. Peptide text beside a SMILES is read from it. d(aIle) = CC[C@H](C)[C@@H](N)C(=O)O

Assays:
[1] = molecular target: T1, endothelin receptors (TE 671 cells) (Homo sapiens, UniProt P25101); test: Endothelin Binding Inhibition Binding Test #1: inhibition of 125I-ET-1 binding to TE 671 cell membranes; details: 125I-ET-1, TE 671 membranes, 4° C. for 16 hours, test compound 1 nM to 100 μM, triplicate
T1 construct: host or cells: TE 671 cells (membrane preparation)
T1 sequence (P25101 21-427): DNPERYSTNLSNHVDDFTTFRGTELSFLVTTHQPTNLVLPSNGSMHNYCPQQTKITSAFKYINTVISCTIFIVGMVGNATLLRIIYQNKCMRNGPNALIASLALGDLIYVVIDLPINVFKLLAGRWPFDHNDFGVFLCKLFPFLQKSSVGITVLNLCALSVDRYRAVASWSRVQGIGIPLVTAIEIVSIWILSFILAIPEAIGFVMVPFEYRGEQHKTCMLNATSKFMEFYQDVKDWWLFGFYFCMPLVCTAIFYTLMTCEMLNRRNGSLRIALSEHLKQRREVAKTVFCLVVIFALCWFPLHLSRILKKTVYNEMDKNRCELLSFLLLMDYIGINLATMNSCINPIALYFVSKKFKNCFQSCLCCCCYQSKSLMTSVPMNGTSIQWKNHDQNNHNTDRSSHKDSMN
Experimental: (§1) TE 671 cells (ATCC Accession No. HTB 139) were grown to confluence in T-175 flasks. Cells from multiple flasks were collected by scraping, pooled and centrifuged for 10 min at 190×g. The cells were resuspended in phosphate buffered saline (PBS) containing 10 mM EDTA using a Tenbroeck homogenizer. The suspension was centrifuged at 4° C. at 57,800×g for 15 min, the pellet was resuspended in 5 ml of buffer A (5 mM HEPES buffer, pH 7.4 containing aprotinin (100 KIU/ml)) and then frozen and thawed once. 5 ml of Buffer B (5 mM HEPES Buffer, pH 7.4 containing 10 mM MnCI2 and 0.001% deoxyribonuclease Type 1) was added, the suspension mixed by inversion and then incubated at 37° C. for 30 minutes. The mixture was centrifuged at 57,800×g as described above, the pellet washed twice with buffer A and then resuspended in buffer C (30 mM HEPES buffer, pH 7.4 containing aprotinin (100 KIU/ml) to give a final protein concentration of 2 mg/ml and stored at -70° C. until use.
The membrane suspension was diluted with binding buffer (30 mM HEPES buffer, pH 7.4 containing 150 mM NaCl, 5 mM MgCl2, 0.5% Bacitracin, 0.1% BSA) to a concentration of 6 μg/100 μl. […] The supernatant, containing unbound radioactivity, was decanted and the pellet counted on a Genesys multiwell gamma counter. The degree of inhibition of binding (D) was calculated according to the following equation: [formula] […]

human ETB receptor = test: Endothelin Inhibition Binding Test #2: membranes of COS7 cells expressing the human ETB receptor; details: 125I-ET-1, COS7 membranes expressing human ETB receptor
Experimental: COS7 cells were transfected with DNA encoding the ETB receptor, The resulting cells, which express the human ETB receptor, were grown to confluence in T-150 flasks. Membrane was prepared as described above. The binding assay was performed as described above using the membrane preparation diluted with binding buffer to a concentration of 1 μg/100 μl.
as §1, with “The COS7 cells, described above, that had been transfected with DNA encoding the ETB receptor and express the human ETB receptor were” for “TE 671 cells (ATCC Accession No. HTB 139) were”, “10 min.” for “10 min”, “A (5mM” for “A (5 mM”, “mM MnCl2” for “mM MnCI2”, “2 mg/ml. […]” for “2 mg/ml and stored at -70° C. until use.”

[2] = molecular target: cardiovascular receptors (ventricle membranes); details: read-out: IC50, inhibition of 125 endothelin-1 binding; cited from earlier work
[3] = tested on: cardiovascular receptors (cultured aortic smooth muscle cells); details: read-out: IC50, inhibition of 125 endothelin-1 binding; cited from earlier work
endothelinB receptor = details: endothelinB receptor-rich tissues; cited from earlier work
[4] = molecular target: cardiovascular receptors (aortic smooth muscle membrane); details: read-out: IC50, inhibition of 125 endothelin-1 binding; cited from earlier work
endothelin-1 = details: cited from earlier work
[5] = tested on: ETB receptors (non-cardiovascular tissues); details: kidney, adrenal gland, cerebellum; cited from earlier work
vasoconstriction = details: cited from earlier work
[6] = tested on: ETB receptors (cerebral tissue); details: cited from earlier work
[7] = tested on: porcine pulmonary arteries; details: cited from earlier work
[8] = tested on: ETA receptors (cardiovascular tissues); details: cited from earlier work
isolated vascular strips = details: read-out: EC50, contractile agent; cited from earlier work

O=C(O)C1CCC2C(=O)NC(Cc3c[nH]c4ccccc34)C(=O)N12 (stereo not shown) [3-(3-indolylmethyl)-1,4-diaza-2,5-dioxobicyclo[4.3.0]nonane-9-carboxylic acid]
IC50 [1]: 22500 nM
activity in the second binding inhibition assay (human ETB receptor): no detectable activity

CC[C@H](C)[C@H]1NC(=O)[C@H](C)NC(=O)[C@@H](CCC(=O)O)NC(=O)[C@@H](Cc2c[nH]c3ccccc23)NC(=O)[C@H](CC(C)C)NC1=O [BE-18257B, c(D-Glu-L-Ala-allo-D-Ile-L-Leu-D-Trp)] (cyclo(A[d(aIle)]L[dW][dE]))
IC50 [2]: 800 nM
IC50 [3]: 500 nM
concentration up to which it fails to inhibit binding (endothelinB receptor): > 100 µM
IC50 [4]: 1400 nM

CC(C)C[C@@H]1NC(=O)[C@@H](C(C)C)NC(=O)[C@@H]2CCCN2C(=O)[C@@H](CC(=O)O)NC(=O)[C@@H](Cc2c[nH]c3ccccc23)NC1=O [BQ-123, c(D-Asp-Pro-D-Val-Leu-D-Trp)] (cyclo(L[dW][dD]P[dV]))
activity as endothelin-1 antagonists (endothelin-1): exhibit activity as endothelin-1 antagonists

(Thr^2, Phe^4, Thr^5, Tyr^6, Lys^7, Tyr^14) endothelin-1 [endothelin-3]
inhibition of 125 endothelin-1 binding [5]: inhibited to the same extent by endothelin-1 and endothelin-3
vasoconstriction potency order (vasoconstriction): endothelin-2>endothelinol>endothelin-3

(Trp^6,Leu^7) endothelin-1 (CSCSSWLDKECVYFCHLDIIW; ends and bridges not checked; cysteine pairing not given here; UniProt P20800 49-69, looked up) [endothelin-2, endothelin isopeptide]
vasoconstriction potency order (vasoconstriction): endothelin-2>endothelinol>endothelin-3

[Ala^1,3,11,15 ]endothelin-1: endothelin-1 analog in which the four cys residues are replaced with Ala (ASASSLMDKEAVYFAHLDIIW; Endothelin-1; UniProt P05305 53-73, looked up, variant C1A C3A C11A C15A)
inhibition of 125 ET-1 binding [6]: inhibits ^125 ET-1 binding to cerebral tissue
relaxation of pre-contracted arteries [7]: dose-dependent relaxation of pre-contracted porcine pulmonary arteries

endothelin-1: potent twenty-one amino acid peptide vasoconstrictor
inhibition of 125 endothelin-1 binding [5]: inhibited to the same extent by endothelin-1 and endothelin-3
vasoconstriction potency order (vasoconstriction): endothelin-2>endothelinol>endothelin-3
potency of inhibition of 125 endothelin-1 binding relative to endothelin-3 [8]: 40-700
EC50 (isolated vascular strips): 0.4 nM
